{"source": "patent US10519177B2", "about": "“Heterocyclic compounds and uses thereof” (Plexxikon Inc., priority 2013, dated 2019)", "data": [{"biological_target": "BRD4-BD1 (44-164) (Homo sapiens (Human), UniProt O60885)", "assay": "Alphascreen binding assay BRD4-BD1", "conditions": "BRD4(1) H4; read-out: Biochemical activity (IC50 μM) BRD4(1) H4", "method": "Binding of compounds of formula (I) with bromodomain 2, 3 4 was assessed using Alphascreen binding assay. The inhibition of the interaction between bromodomain and its acetylated target protein (Filippakopoulos P et al. 2012) was measured quantitatively using recombinant BRD proteins, an acetylated Histone 4 peptide and AlphaScreen™ technology. In absence of inhibition the BRD protein bound to AlphaScreen™ nickel chelate acceptor beads can interact with the acetylated Histone 4 peptide which is immobilized by the AlphaScreen™ Streptavidin coated beads. This interaction brings donor and acceptor beads in proximity. The close proximity allows the singlet oxygen produced by laser excitation of the donor beads to reach the acceptor beads and generate a luminescence signal.\nRecombinant human bromodomains containing the N-terminal bromodomain (BRD2-BD1 (71-194), BRD3-BD1 (24-144) and BRD4-BD1 (44-164)) or dual bromodomains (BRD4-BD12 (1-477), BRD4-BD12 (1-472)) were prepared and purified as described in protein expression and purification session. The peptide is human Histone H41-21K5AcK8AcK12AcK16Ac-Biotin (Anaspec CA, USA).\nProtocol for BRD2, BRD3 and BRD4 assay: All components are prepared in buffer composed of 50 mM HEPES pH 7.5, 100 mM NaCl, 0.01% bovine serum albumin (“BSA”), 0.01% Triton X-100, 2 mM dithiothreitol (“DTT”). 7 μL of Bromodomain protein and 7 μL of peptide are added to wells containing 1 μL of various concentrations of test compounds of formula (I) or DMSO vehicle in an Alphaplate (PerkinElmer GA, USA) and incubated for 1 hour at room temperature. 4 μL donor and acceptor bead mixture is then added with final concentrations of 7.5 μg/ml. 30 minutes after bead addition, Alpha signal is read on the Envision spectrometer (λEx 680 nm, λEm 520-620 nm). Final concentrations of bromodomain proteins and peptide are as shown below.\nAll data was normalized to the mean of 16 high and 16 low control wells on each plate. A four parameter curve fit of the following formula was then applied: Y=a+(b−a)/(1+(x/c)^d) Where ‘a’ is the minimum, ‘b’ is the maximum, ‘c’ is the pIC50 and ‘d’ is the Hill slope. Protein Expression and Purification\nRecombinant human bromodomains containing the N-terminal bromodomain (BRD2-BD1 (71-194), BRD3-BD1 (24-144) and BRD4-BD1 (44-164)) or dual bromodomains (BRD4-BD12 (1-477), BRD4-BD12 (1-472)) were expressed in E. coli cells (in a modified pET vector) with an N-terminal six-His tag and purified using a combination of both IMAC (Ni-affinity) and size exclusion chromatography steps.\nRecombinant BRD proteins were expressed using the E. coli strain BL21-CodonPlus (DE3) (Agilent Technologies CA, USA). Cells were grown in Terrific Broth (TB) media to an OD600 of 1.2 at 37° C. at which temperature was reduced to 25° C., protein was induced with 1.0 mM ispropyl-β-D-thiogalactopyranoside (“IPTG”) for 12-18 hours and harvested by centrifugation at 8000×g for 20 minutes. Cells were re-suspended in 0.1M K2PO4 pH 8.0, 250 mM NaCl, 10% Glycerol, 0.75% NP-40, 25 mM Imidazole, 5 mM beta-mercaptoethanol (“BME”) with 0.2 mg/ml Lysosyme, 2.0 mM phenylmethanesulfonyl fluoride (“PMSF”), 25 μg/ml DNAse I, incubated on ice for 30 minutes and lyzed with a cell disruptor (MicroFluidics MA, USA). The lysate was clarified by centrifugation at 20,000×g for 2 hours. The protein was captured with Ni-NTA resin (Life Technologies, USA). Contaminating proteins were washed off with 25 mM Tris-HCl pH 8.3, 250 mM NaCl, 12% Glycerol and 50 mM Imidazole. Following 3× wash steps, protein was eluted step wise using a 50 mM HEPES pH 7.5, 500 mM NaCl and 400 mM Imidazole. The protein was further purified using Gel Filtration column 26/600 Superdex 200 (GE Biosciences NJ, USA) in 50 mM HEPES pH 7.5, 250 mM NaCl. The protein was aliquoted and flash-frozen in liquid Nitrogen.", "units": {"IC50": "µM"}, "values": [{"smiles": "Cc1ccc(S(=O)(=O)n2ccc3ncc(-c4c(C)noc4C)cc32)s1", "note": "[P-0062, 3,5-dimethyl-4-[1-[(5-methyl-2-thienyl)sulfonyl]pyrrolo[3,2-b]pyridin-6-yl]isoxazole]", "IC50": "< 1"}, {"smiles": "Cc1noc(C)c1-c1cnc2c(-c3cn[nH]c3)cn(C(C)c3ccccc3)c2c1", "note": "(stereo not drawn) [P-0199, 3,5-dimethyl-4-[1-(1-phenyl-ethyl)-3-(1H-pyrazol-4-yl)pyrrolo[3,2-b]pyridin-6-yl]isoxazole]", "IC50": "< 1"}, {"smiles": "Cc1noc(C)c1-c1cnc2ccn(S(=O)(=O)N3CCCCC3)c2c1", "note": "[P-0067, 3,5-dimethyl-4-[1-(1-piperidylsulfonyl)pyrrolo[3,2-b]pyridin-6-yl]isoxazole]", "IC50": "< 1"}, {"smiles": "COC(c1cn(S(=O)(=O)C2CCCCC2)c2cc(-c3c(C)noc3C)cnc12)C1CC1", "note": "(stereo not drawn) [P-0071, 4-[1-cyclohexyl-sulfonyl-3-[cyclopropyl(methoxy)methyl]pyrrolo[3,2-b]pyridin-6-yl]-3,5-dimethyl-isoxazole]", "IC50": "< 1"}, {"smiles": "Cc1noc(C)c1-c1cnc2c(-c3cnn(C(F)F)c3)cn(CC3CCC(F)(F)CC3)c2c1", "note": "[P-0210, 4-[1-[(4,4-difluorocyclohexyl)methyl]-3-[1-(difluoromethyl)pyrazol-4-yl]pyrrolo[3,2-b]pyridin-6-yl]-3,5-dimethyl-isoxazole]", "IC50": "< 1"}, {"smiles": "Cc1noc(C)c1-c1cnc2c(-c3cnn(C4CC4)c3)cn(C(C)c3ccccc3)c2c1", "note": "(stereo not drawn) [P-0216, 4-[3-(1-cyclopropylpyrazol-4-yl)-1-(1-phenylethyl)pyrrolo[3,2-b]pyridin-6-yl]-3,5-dimethyl-isoxazole]", "IC50": "< 1"}, {"smiles": "Cc1noc(C)c1-c1cnc2c(-c3cnn(C(F)F)c3)cn(S(=O)(=O)C3CCC3)c2c1", "note": "[P-0134, 4-[1-cyclobutyl-sulfonyl-3-[1-(difluoro-methyl)pyrazol-4-yl]pyrrolo[3,2-b]pyridin-6-yl]-3,5-dimethyl-isoxazole]", "IC50": "< 1"}, {"smiles": "Cc1noc(C)c1-c1cnc2[nH]cc(CC3CCS(=O)(=O)CC3)c2c1", "note": "[P-0098, 4-[[5-(3,5-dimethylisoxazol-4-yl)-1H-pyrrolo[2,3-b]pyridin-3-yl]methyl]thiane 1,1-dioxide]", "IC50": "< 1"}, {"smiles": "CCn1cc(-c2cn(S(=O)(=O)c3ccccc3)c3cc(-c4c(C)noc4C)cnc23)cn1", "note": "[P-0124, 4-[1-(benzenesulfonyl)-3-(1-ethylpyrazol-4-yl)pyrrolo[3,2-b]pyridin-6-yl]-3,5-dimethyl-isoxazole]", "IC50": "< 1"}, {"smiles": "Cc1noc(C)c1-c1cnc2c(c1)c(S(=O)(=O)c1ccccc1)cn2-c1cnn(C)c1", "note": "[P-0185, 4-[3-(benzenesulfonyl)-1-(1-methylpyrazol-4-yl)pyrrolo[2,3-b]pyridin-5-yl]-3,5-dimethyl-isoxazole]", "IC50": "< 1"}, {"smiles": "CCCS(=O)(=O)n1cc(-c2cnn(CC(F)(F)F)c2)c2ncc(-c3c(C)noc3C)cc21", "note": "[P-0150, 3,5-dimethyl-4-[1-propylsulfonyl-3-[1-(2,2,2-trifluoroethyl)pyrazol-4-yl]pyrrolo[3,2-b]pyridin-6-yl]isoxazole]", "IC50": "< 1"}, {"smiles": "COC(c1ccccc1Cl)c1c[nH]c2ncc(-c3c(C)noc3C)cc12", "note": "(stereo not drawn) [P-0020, 4-[3-[(2-chlorophenyl)-methoxy-methyl]-1H-pyrrolo[2,3-b]pyridin-5-yl]-3,5-dimethyl-isoxazole]", "IC50": "< 1"}, {"smiles": "Cc1noc(C)c1-c1cnc2[nH]cc(C(c3ccc(F)cc3)C3CC3)c2c1", "note": "(stereo not drawn) [P-0064, 4-[3-[cyclopropyl-(4-fluorophenyl)methyl]-1H-pyrrolo[2,3-b]pyridin-5-yl]-3,5-dimethyl-isoxazole]", "IC50": "< 1"}, {"smiles": "CCNC(=O)N1CCC(Cc2cn(C)c3ncc(-c4c(C)noc4C)cc23)CC1", "note": "[P-0117, 4-[[5-(3,5-dimethylisoxazol-4-yl)-1-methyl-pyrrolo[2,3-b]pyridin-3-yl]methyl]-N-ethyl-piperidine-1-carboxamide]", "IC50": "< 1"}, {"smiles": "Cc1noc(C)c1-c1cnc2c(-c3cnn(C)c3)cn(Cc3cscn3)c2c1", "note": "[P-0171, 3,5-dimethyl-4-[3-(1-methylpyrazol-4-yl)-1-(thiazol-4-ylmethyl)pyrrolo[3,2-b]pyridin-6-yl]isoxazole]", "IC50": "< 1"}, {"smiles": "Cc1noc(C)c1-c1cnc2[nH]cc(C(O)c3ccc(OCC(F)(F)F)nc3)c2c1", "note": "(stereo not drawn) [P-0012, [5-(3,5-dimethylisoxazol-4-yl)-1H-pyrrolo[2,3-b]pyridin-3-yl]-[6-(2,2,2-trifluoroethoxy)-3-pyridyl]methanol]", "IC50": "< 1"}, {"smiles": "Cc1noc(C)c1-c1cnc2c(c1)c(CC1CCN(C(=O)c3ccccc3)CC1)cn2C", "note": "[P-0115, [4-[[5-(3,5-dimethylisoxazol-4-yl)-1-methyl-pyrrolo[2,3-b]pyridin-3-yl]methyl]-1-piperidyl]-phenyl-methanone]", "IC50": "< 1"}, {"smiles": "C=CCn1cc(-c2cn(S(=O)(=O)c3ccccc3F)c3cc(-c4c(C)noc4C)cnc23)cn1", "note": "[P-0127, 4-[3-(1-allylpyrazol-4-yl)-1-(2-fluorophenyl)sulfonyl-pyrrolo[3,2-b]pyridin-6-yl]-3,5-dimethyl-isoxazole]", "IC50": "< 1"}, {"smiles": "C=CCn1cc(-c2cn(S(=O)(=O)CCC)c3cc(-c4c(C)noc4C)cnc23)cn1", "note": "[P-0137, 4-[3-(1-allylpyrazol-4-yl)-1-propylsulfonyl-pyrrolo[3,2-b]pyridin-6-yl]-3,5-dimethyl-isoxazole]", "IC50": "< 1"}, {"smiles": "Cc1noc(C)c1-c1cnc2c(-c3cnn(C(F)F)c3)cn(S(=O)(=O)c3ccccc3)c2c1", "note": "[P-0131, 4-[1-(benzenesulfonyl)-3-[1-(difluoromethyl)pyrazol-4-yl]pyrrolo[3,2-b]pyridin-6-yl]-3,5-dimethyl-isoxazole]", "IC50": "< 1"}, {"smiles": "Cc1noc(C)c1-c1cnc2c(-c3cnn(C)c3)cn(C(CF)c3ccccc3)c2c1", "note": "(stereo not drawn) [P-0187, 4-[1-(2-fluoro-1-phenyl-ethyl)-3-(1-methylpyrazol-4-yl)pyrrolo[3,2-b]pyridin-6-yl]-3,5-dimethyl-isoxazole]", "IC50": "< 1"}, {"smiles": "Cc1noc(C)c1-c1cnc2ccn(S(=O)(=O)C3CCCCC3)c2c1", "note": "[P-0066, 4-(1-cyclohexylsulfonyl-pyrrolo[3,2-b]pyridin-6-yl)-3,5-dimethyl-isoxazole]", "IC50": "< 1"}, {"smiles": "Cc1noc(C)c1-c1cnc2[nH]cc(C3=CCC(F)(F)CC3)c2c1", "note": "[P-0029, 4-[3-(4,4-difluorocyclo-hexen-1-yl)-1H-pyrrolo[2,3-b]pyridin-5-yl]-3,5-dimethyl-isoxazole]", "IC50": "< 1"}, {"smiles": "Cc1noc(C)c1-c1cnc2[nH]cc(P(=O)(c3ccccc3)c3ccccc3)c2c1", "note": "[P-0166, 4-(3-diphenylphosphoryl-1H-pyrrolo[2,3-b]pyridin-5-yl)-3,5-dimethyl-isoxazole]", "IC50": "< 1"}, {"smiles": "Cc1noc(C)c1-c1cnc2c(-c3cnn(C)c3)cn(Cc3ccccc3C(F)(F)F)c2c1", "note": "[P-0188, 3,5-dimethyl-4-[3-(1-methylpyrazol-4-yl)-1-[[2-(trifluoromethyl)phenyl]methyl]pyrrolo[3,2-b]pyridin-6-yl]isoxazole]", "IC50": "< 1"}, {"smiles": "CCc1[nH]c2ncc(-c3c(C)noc3C)cc2c1Cc1ccccc1Cl", "note": "[P-0049, 4-[3-[(2-chlorophenyl)methyl]-2-ethyl-1H-pyrrolo[2,3-b]pyridin-5-yl]-3,5-dimethyl-isoxazole]", "IC50": "< 1"}, {"smiles": "Cc1noc(C)c1-c1cnc2c(-c3cnn(C)c3)cn(C(CC#N)C3CCCC3)c2c1", "note": "(stereo not drawn) [P-0197, 3-cyclopentyl-3-[6-(3,5-dimethylisoxazol-4-yl)-3-(1-methylpyrazol-4-yl)pyrrolo[3,2-b]pyridin-1-yl]propanenitrile]", "IC50": "< 1"}]}]}
